Holding throughout (assay): DTP human tumour cell line panel, 48 h
The test system of assay [1] is CAKI-1.
The test system of assay [2] is CCRF-CEM.
The subject of assay [3] is HCT-15.
The test system of assay [4] is HL-60.
For assay [5], the system named is HOP-62.
The subject of assay [6] is KM12.
Assay [7] has as its system LOX IMVI.
Assay [8] has as its system M19-MEL.
The subject of assay [9] is NCI-H522.
Assay [10] has as its system OVCAR-4.
For assay [11], the system named is SF-295.
Assay [12] concerns SF-539.
Assay [13] deals with SK-MEL-2.
Assay [14] has as its system SK-OV-3.
Assay [15] deals with SW-620.
Assay [16] concerns U-251.
Assay [17] has as its system UO-31.
In assay [18] the test system is BT-549.
Assay [19] deals with DU-145.

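1) Cells in 96-well plates. 2) Compound, 48 h, 5 concentrations. 3) Linear interpolation between surrounding doses. 4) Unreached endpoint = highest concentration. GI50: concentration for 50% inhibition of growth.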 Activity calls are given as the source filed them. Rule as the data show it: active = GI50 up to about 1.1 µM and inactive = higher.

On to `O=C1CCC(c2nc3ccccc3o2)C(=O)N1` (stereo unspecified), for which the GI50 (as a rule, the concentration giving 50% growth inhibition) is > 100 µM (inactive) in assay [1]; > 100 µM (inactive) in assay [2]; > 100 µM in assay [3]; > 100 µM (inactive) in [4]; > 100 µM (inactive) in [5]; > 100 µM (inactive) in assay [6]. Further, the GI50 in assay [7], in assay [8], in [9], in assay [10], in [11] and in [12] was > 100 µM (inactive) in each case. The GI50 in assay [13], in assay [14], in assay [15], in [16] and in [17] was > 100 µM (inactive) in each case.
For the molecule `O=C1c2ccccc2C(=O)C1C(c1ccc(F)cc1)C1C(=O)c2ccccc2C1=O`, the GI50 in [1] was > 100 µM (inactive); in assay [2], 43 µM (inactive); in assay [3], > 100 µM; in assay [4], 37.8 µM (inactive); in assay [5], > 100 µM (inactive); in [6], > 100 µM (inactive). The GI50 was 25.9 µM (inactive) in assay [7]; 61 µM (inactive) in assay [8]; > 100 µM (inactive) in [9]; > 100 µM (inactive) in assay [10]; > 100 µM (inactive) in assay [11]; > 100 µM (inactive) in assay [12]. The GI50 in assay [13], in [14], in assay [15], in [16] and in [17] was > 100 µM (inactive) in each case.
Turning to `N#CC1(N2CCCC2)CCC2(CC1)OCCO2`, the GI50 in assay [1] was > 100 µM (inactive); in assay [2] it was > 100 µM (inactive); in [3] it was > 100 µM; in assay [4], > 100 µM (inactive); in assay [5], > 100 µM (inactive); in assay [6] it was > 100 µM (inactive). In addition, the GI50 in assay [7] is > 100 µM (inactive); in assay [8] it was > 10 µM (inactive); in assay [9], > 100 µM (inactive); in [10] it was > 100 µM (inactive); in [11], > 100 µM (inactive); in assay [12] it was > 100 µM (inactive). For the same molecule, the GI50 in assay [13], in assay [14], in assay [15], in [16] and in assay [17] was > 100 µM (inactive) in each case.
For the molecule `Cc1ccc(NC(=O)NC(=O)c2ccc([N+](=O)[O-])cc2[N+](=O)[O-])cc1Oc1ncc(Cl)cn1`, the GI50 in assay [18] is 17.9 µM (inactive); in [1], 0.479 µM (active); in [2], 0.292 µM (active); in [19], 0.731 µM (active); in assay [3] it was 0.44 µM; in assay [4], 0.218 µM (active). Moreover, the GI50 in assay [5] is 0.277 µM (active); in assay [6] it was 0.252 µM (active); in [7] it was 0.637 µM (active); in assay [8], 0.741 µM (active); in assay [9], 0.195 µM (active); in assay [10], 11.4 µM (inactive). In addition, the GI50 was 0.406 µM (active) in assay [11]; 0.287 µM (active) in [12]; 0.908 µM (active) in assay [14]; 0.332 µM (active) in [15]; 0.208 µM (active) in assay [16]; 0.735 µM (active) in [17].
`CC(=O)OCC1OC(OC2CC3C(C)(C)C(O)CC[C@]3(C)C3CCC45CC4(CC[C@H]5C(C)CC(O)C4OC4(C)C)[C@]23C)C(O)C(O)C1O` (stereo partly specified): the GI50 in assay [1] is 8.87 µM (inactive); in [2], 1.56 µM (inactive); in [3], 8.45 µM; in assay [4], 0.973 µM (active); in assay [5] it was 11.1 µM (inactive); in [6], 8.04 µM (inactive). The GI50 in assay [7] is 5.2 µM (inactive); in assay [8], 4.27 µM (inactive); in assay [9] it was 4.89 µM (inactive); in assay [10], 8.73 µM (inactive); in [11] it was 8.24 µM (inactive); in assay [12] it was 7.98 µM (inactive). Also, the GI50 in assay [13] was 5.86 µM (inactive); in assay [14], 8.2 µM (inactive); in assay [15], 7.98 µM (inactive); in assay [16], 3.89 µM (inactive); in assay [17], 8.51 µM (inactive).
With `CC1=Nn2c(nnc2-c2ccc(N)cc2)NC(C)(C)C1`, the GI50 in assay [1] was > 100 µM (inactive); in assay [2] it was > 100 µM (inactive); in assay [3] it was > 100 µM; in [4], > 100 µM (inactive); in [5], > 100 µM (inactive); in [6], > 100 µM (inactive). In addition, the GI50 in [7], in assay [8], in assay [9], in assay [10], in assay [11] and in assay [12] was > 100 µM (inactive) in each case. In addition, the GI50 in [13], in [14], in assay [15], in assay [16] and in assay [17] was > 100 µM (inactive) throughout.
`CCCCCCCCCCCc1cc(=O)c2c(O)cccc2o1`: the GI50 is > 100 µM (inactive) in assay [1]; 20.3 µM (inactive) in assay [2]; 54.8 µM in [3]; 30.5 µM (inactive) in assay [4]; > 100 µM (inactive) in assay [5]; 54.2 µM (inactive) in assay [6]. The GI50 in assay [7] was 37.5 µM (inactive); in assay [8], 43.8 µM (inactive); in assay [9] it was 71.1 µM (inactive); in assay [10], > 100 µM (inactive); in [11], 87.5 µM (inactive); in [12] it was > 100 µM (inactive). Moreover, the GI50 was 24.1 µM (inactive) in assay [13]; > 100 µM (inactive) in [14]; > 100 µM (inactive) in assay [15]; 95.7 µM (inactive) in assay [16]; > 100 µM (inactive) in [17].
In the case of `CCc1ccc(Cc2ccc(CC)c(NC(=O)C(=O)Cc3nc4ccccc4nc3C)c2CC)c(CC)c1NC(=O)C(=O)Cc1nc2ccccc2nc1C`, the GI50 was 25.4 µM (inactive) in assay [1]; 42.7 µM (inactive) in assay [2]; > 100 µM in assay [3]; > 100 µM (inactive) in assay [4]; > 100 µM (inactive) in [5]; > 100 µM (inactive) in assay [6]. Also, the GI50 is > 100 µM (inactive) in [7]; > 100 µM (inactive) in [8]; 26.4 µM (inactive) in [9]; 72.3 µM (inactive) in assay [10]; 36.8 µM (inactive) in [12]; > 100 µM (inactive) in [13]. In addition, the GI50 is > 100 µM (inactive) in assay [14], > 100 µM (inactive) in assay [15], 49.7 µM (inactive) in assay [16] and 17.7 µM (inactive) in assay [17].

The record behind these values is ChEMBL document CHEMBL1201862, “PubChem BioAssay data set” (2004).
